Source: patent publication US11000033B2, “Ketone or oxime compound, and herbicide” (NISSAN CHEMICAL CORPORATION, priority 2014, dated 2021)

Columns and labels:
Type in all cases: in vivo
rice = test: Test Example 4: effect on crop by soil treatment (symbol b)
In short: (§1)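 Grown at 25° C. to 30° C. in a greenhouse, the crops came from seed sown spot-wise in sterilized diluvial soil under roughly 1.5 cm of covering soil.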

Amaranthus retroflexus = test: Test Example 4: herbicidal effect by soil treatment (symbol N)
In short: (§2)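 Seeds were sown in sterilized diluvial soil, covered with about 1.5 cm of soil, and the soil surface was sprayed with a water-diluted emulsion of the compound at a predetermined rate. Plants grew in a greenhouse at 25° C. to 30° C.; effects were scored visually 3 weeks after application.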

Avena fatua = test: Test Example 5: herbicidal effect by foliage application, plastic box (symbol I); details: 3 weeks after application
In short: (§3)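 Seeds were sown in sterilized diluvial soil, covered with about 1.5 cm of soil and grown 14 days in a greenhouse at 25° C. to 30° C. An emulsifiable formulation diluted in water to a set rate was sprayed over foliage, and injury was scored 3 weeks later.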

Cyperus difformis = test: Test Example 3: herbicidal effect by foliage application, Wagner pot (symbol E)
In short: (§4)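 Foliar spray of water-diluted emulsion formulation at a predetermined herbicide amount onto 14-day-old plants in flooded alluvial soil (water depth 0.1–0.5 cm), greenhouse 25–30 °C; rice sown alongside. Scored 3 wk post-application on set criteria.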

Monochoria vaginalis = test: Test Example 1: herbicidal activity, application before weed generation in submerged conditions (symbol C)
In short: (§5)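 Ratings (5: ≥90%, near complete withering; 4: 70–<90%; 3: 40–<70%; 2: 20–<40%; 1: 5–<20%; 0: ≤5%) were assigned 3 weeks after the diluted emulsion was applied to the water surface of freshly sown, submerged pots.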

wheat [1] = test: Test Example 4: effect on crop by soil treatment (symbol e)
In short: as §1

Abutilon theophrasti = test: Test Example 5: herbicidal effect by foliage application, plastic box (symbol M); details: 3 weeks after application
In short: as §3

Galium spurium = test: Test Example 4: herbicidal effect by soil treatment (symbol Q)
In short: as §2

Leptochloa chinensis = test: Test Example 3: herbicidal effect by foliage application, Wagner pot (symbol D)
In short: as §4

Lolium multiflorum Lam. = test: Test Example 4: herbicidal effect by soil treatment (symbol K)
In short: as §2

Chenopodium album [2] = test: Test Example 5: herbicidal effect by foliage application, plastic box (symbol O); details: 3 weeks after application
In short: as §3

beet = test: Test Example 4: effect on crop by soil treatment (symbol f)
In short: as §1

Apera spica-venti = test: Test Example 5: herbicidal effect by foliage application, plastic box (symbol L); details: 3 weeks after application
In short: as §3

wheat [3] = test: Test Example 5: effect on crop by foliage application, plastic box (symbol e); details: 3 weeks after application
In short: (§6)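 Sterilized diluvial soil, plastic box (21 × 13 × 7 cm); spot sowing, ~1.5 cm soil cover; greenhouse 25–30° C.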

[4] = system: Echinochloa oryzacola Vasing.; test: Test Example 1: herbicidal activity, application before weed generation in submerged conditions (symbol A)
In short: as §5

rice plant = test: Test Example 5: effect on crop by foliage application, plastic box (symbol b); details: 3 weeks after application
In short: as §6

rapeseed = test: Test Example 4: effect on crop by soil treatment (symbol g)
In short: as §1

Stellaria media = test: Test Example 5: herbicidal effect by foliage application, plastic box (symbol P); details: 3 weeks after application
In short: as §3

Chenopodium album [5] = test: Test Example 4: herbicidal effect by soil treatment (symbol O); details: 320 g/ha
In short: as §2

[6] = application herbicide amount 320 g/ha
[7] = application herbicide amount 320 g/ha, Table 24
[8] = application herbicide amount 102 g/ha

Compound: CON=C(CC1CC(OC(=O)C(C)(C)C)=C(c2c(C)cc(C)cc2OC)C1=O)C1CC1 (mixture of isomers) [13-006]
- b: directly sowed rice plant, effect on crop grade (rice; [6]): 5 (Herbicidal ratio of 90% or more (almost completely withered))
- N: Amaranthus retroflexus, herbicidal effect grade (Amaranthus retroflexus; [6]): 0 (Herbicidal ratio of 5% or lower (almost no effect))
- I: Avena fatua, herbicidal effect grade (Avena fatua; 320 g/ha): 5 (Herbicidal ratio of 90% or more (almost completely withered))
- E herbicidal effect grade (Cyperus difformis; [7]): 5 (Herbicidal ratio of 90% or more (almost completely withered))
- C (Monochoria vaginalis) herbicidal effect grade (Monochoria vaginalis; [6]): 4 (Herbicidal ratio of 70% or higher and lower than 90%)
- e: wheat, effect on crop grade (wheat [1]; [6]): 4 (Herbicidal ratio of 70% or higher and lower than 90%)
- M: Abutilon theophrasti, herbicidal effect grade (Abutilon theophrasti; 320 g/ha): 4 (Herbicidal ratio of 70% or higher and lower than 90%)
- Q: Galium spurium, herbicidal effect grade (Galium spurium; [6]): 0 (Herbicidal ratio of 5% or lower (almost no effect))
- D (Leptochloa chinensis) herbicidal effect grade (Leptochloa chinensis; [7]): 5 (Herbicidal ratio of 90% or more (almost completely withered))
- K: Lolium multiflorum Lam., herbicidal effect grade (Lolium multiflorum Lam.; [6]): 5 (Herbicidal ratio of 90% or more (almost completely withered))
- O: Chenopodium album, herbicidal effect grade (Chenopodium album [2]; 320 g/ha): 2 (Herbicidal ratio of 20% or higher and lower than 40%)
- f: beet, effect on crop grade (beet; [6]): 0 (Herbicidal ratio of 5% or lower (almost no effect))
- L: Apera spica-venti, herbicidal effect grade (Apera spica-venti; 320 g/ha): 5 (Herbicidal ratio of 90% or more (almost completely withered))
- e: wheat, effect on crop grade (wheat [3]; 320 g/ha): 5 (Herbicidal ratio of 90% or more (almost completely withered))
- A (Echinochloa oryzacola Vasing.) herbicidal effect grade [4, 6]: 5 (Herbicidal ratio of 90% or more (almost completely withered))
- b: directly sowed rice plant, effect on crop grade (rice plant; 320 g/ha): 5 (Herbicidal ratio of 90% or more (almost completely withered))
- g: rapeseed, effect on crop grade (rapeseed; [6]): 3 (Herbicidal ratio of 40% or higher and lower than 70%)
- P: Stellaria media, herbicidal effect grade (Stellaria media; 320 g/ha): 3 (Herbicidal ratio of 40% or higher and lower than 70%)

Compound: CC(CC1CC(O)=C(c2c(C)cc(C)cc2C)C1=O)=NOCc1ccc(Cl)cc1 (centres unmarked) [1-137]
- b: directly sowed rice plant, effect grade on crop (rice; 320 g/ha): 5 (Herbicidal ratio of 90% or more (almost completely withered))
- I: Avena fatua, herbicidal effect (criteria 0-5) (Avena fatua; 320 g/ha): 5 (Herbicidal ratio of 90% or more (almost completely withered))
- Herbicidal effect grade, C: Monochoria vaginalis (Monochoria vaginalis; [6]): 5 (Herbicidal ratio of 90% or more (almost completely withered))
- e: wheat, effect grade on crop (wheat [1]; 320 g/ha): 0 (Herbicidal ratio of 5% or lower (almost no effect))
- M: Abutilon theophrasti, herbicidal effect (criteria 0-5) (Abutilon theophrasti; 320 g/ha): 4 (Herbicidal ratio of 70% or higher and lower than 90%)
- Q: Galium spurium, herbicidal effect grade (Galium spurium; 320 g/ha): 0 (Herbicidal ratio of 5% or lower (almost no effect))
- herbicidal effect on D (Leptochloa chinensis), grade 0-5 (Leptochloa chinensis; [6]): 5 (Herbicidal ratio of 90% or more (almost completely withered))
- O: Chenopodium album, herbicidal effect grade (Chenopodium album [5]): 0 (Herbicidal ratio of 5% or lower (almost no effect))
- K: Lolium multiflorum Lam., herbicidal effect grade (Lolium multiflorum Lam.; 320 g/ha): 5 (Herbicidal ratio of 90% or more (almost completely withered))
- O: Chenopodium album, herbicidal effect (criteria 0-5) (Chenopodium album [2]; 320 g/ha): 3 (Herbicidal ratio of 40% or higher and lower than 70%)
- f: beet, effect grade on crop (beet; 320 g/ha): 0 (Herbicidal ratio of 5% or lower (almost no effect))
- L: Apera spica-venti, herbicidal effect (criteria 0-5) (Apera spica-venti; 320 g/ha): 5 (Herbicidal ratio of 90% or more (almost completely withered))
- e: wheat, effect on crop (criteria 0-5) (wheat [3]; 320 g/ha): 3 (Herbicidal ratio of 40% or higher and lower than 70%)
- Herbicidal effect grade, A: Echinochloa oryzacola Vasing. [4, 6]: 5 (Herbicidal ratio of 90% or more (almost completely withered))
- b: directly sowed rice plant, effect on crop (criteria 0-5) (rice plant; 320 g/ha): 5 (Herbicidal ratio of 90% or more (almost completely withered))
- g: rapeseed, effect grade on crop (rapeseed; 320 g/ha): 0 (Herbicidal ratio of 5% or lower (almost no effect))
- P: Stellaria media, herbicidal effect (criteria 0-5) (Stellaria media; 320 g/ha): 0 (Herbicidal ratio of 5% or lower (almost no effect))

Compound: CC(=O)CC1CC(O)=C(c2c(C)cc(C)cc2C)C1=O (centres unmarked) [2-001, 3-hydroxy-2-mesityl-5-(2-oxopropyl)cyclopent-2-enone]
- b: directly sowed rice plant, effect grade on crop (rice; 102 g/ha): 5 (Herbicidal ratio of 90% or more (almost completely withered))
- N: Amaranthus retroflexus, herbicidal effect grade (Amaranthus retroflexus; 102 g/ha): 1 (Herbicidal ratio of 5% or higher and lower than 20%)
- I: Avena fatua, herbicidal effect grade (Avena fatua; 102 g/ha): 4 (Herbicidal ratio of 70% or higher and lower than 90%)
- herbicidal effect on E, grade 0-5 (Cyperus difformis; [8]): 5 (Herbicidal ratio of 90% or more (almost completely withered))
- Herbicidal effect grade, C: Monochoria vaginalis (Monochoria vaginalis; [8]): 0 (Herbicidal ratio of 5% or lower (almost no effect))
- e: wheat, effect grade on crop (wheat [1]; 102 g/ha): 0 (Herbicidal ratio of 5% or lower (almost no effect))
- M: Abutilon theophrasti, herbicidal effect grade (Abutilon theophrasti; 102 g/ha): 1 (Herbicidal ratio of 5% or higher and lower than 20%)
- Q: Galium spurium, herbicidal effect grade (Galium spurium; 102 g/ha): 0 (Herbicidal ratio of 5% or lower (almost no effect))
- herbicidal effect on D (Leptochloa chinensis), grade 0-5 (Leptochloa chinensis; [8]): 5 (Herbicidal ratio of 90% or more (almost completely withered))
- K: Lolium multiflorum Lam., herbicidal effect grade (Lolium multiflorum Lam.; 102 g/ha): 5 (Herbicidal ratio of 90% or more (almost completely withered))
- O: Chenopodium album, herbicidal effect grade (Chenopodium album [2]; 102 g/ha): 3 (Herbicidal ratio of 40% or higher and lower than 70%)
- f: beet, effect grade on crop (beet; 102 g/ha): 0 (Herbicidal ratio of 5% or lower (almost no effect))
- L: Apera spica-venti, herbicidal effect grade (Apera spica-venti; 102 g/ha): 4 (Herbicidal ratio of 70% or higher and lower than 90%)
- e: wheat, effect on crop grade (wheat [3]; 102 g/ha): 0 (Herbicidal ratio of 5% or lower (almost no effect))
- Herbicidal effect grade, A: Echinochloa oryzacola Vasing. [4, 8]: 4 (Herbicidal ratio of 70% or higher and lower than 90%)
- b: directly sowed rice plant, effect on crop grade (rice plant; 102 g/ha): 4 (Herbicidal ratio of 70% or higher and lower than 90%)
- g: rapeseed, effect grade on crop (rapeseed; 102 g/ha): 3 (Herbicidal ratio of 40% or higher and lower than 70%)
- P: Stellaria media, herbicidal effect grade (Stellaria media; 102 g/ha): 3 (Herbicidal ratio of 40% or higher and lower than 70%)

Compound: CON=C(C)CC1CC(OC(=O)c2cc(C)on2)=C(c2c(C)cc(C)cc2C)C1=O (centres unmarked) [1-100]
- b: directly sowed rice plant, effect grade on crop (rice; 320 g/ha): 5 (Herbicidal ratio of 90% or more (almost completely withered))
- N: Amaranthus retroflexus, herbicidal effect grade (Amaranthus retroflexus; 320 g/ha): 2 (Herbicidal ratio of 20% or higher and lower than 40%)
- I: Avena fatua, herbicidal effect (criteria 0-5) (Avena fatua; 320 g/ha): 5 (Herbicidal ratio of 90% or more (almost completely withered))
- herbicidal effect on E, grade 0-5 (Cyperus difformis; [6]): 5 (Herbicidal ratio of 90% or more (almost completely withered))
- Herbicidal effect grade, C: Monochoria vaginalis (Monochoria vaginalis; [6]): 3 (Herbicidal ratio of 40% or higher and lower than 70%)
- e: wheat, effect grade on crop (wheat [1]; 320 g/ha): 5 (Herbicidal ratio of 90% or more (almost completely withered))
- M: Abutilon theophrasti, herbicidal effect (criteria 0-5) (Abutilon theophrasti; 320 g/ha): 4 (Herbicidal ratio of 70% or higher and lower than 90%)
- Q: Galium spurium, herbicidal effect grade (Galium spurium; 320 g/ha): 0 (Herbicidal ratio of 5% or lower (almost no effect))
- herbicidal effect on D (Leptochloa chinensis), grade 0-5 (Leptochloa chinensis; [6]): 5 (Herbicidal ratio of 90% or more (almost completely withered))
- K: Lolium multiflorum Lam., herbicidal effect grade (Lolium multiflorum Lam.; 320 g/ha): 5 (Herbicidal ratio of 90% or more (almost completely withered))
- O: Chenopodium album, herbicidal effect (criteria 0-5) (Chenopodium album [2]; 320 g/ha): 1 (Herbicidal ratio of 5% or higher and lower than 20%)
- f: beet, effect grade on crop (beet; 320 g/ha): 0 (Herbicidal ratio of 5% or lower (almost no effect))
- L: Apera spica-venti, herbicidal effect (criteria 0-5) (Apera spica-venti; 320 g/ha): 5 (Herbicidal ratio of 90% or more (almost completely withered))
- e: wheat, effect on crop (criteria 0-5) (wheat [3]; 320 g/ha): 5 (Herbicidal ratio of 90% or more (almost completely withered))
- Herbicidal effect grade, A: Echinochloa oryzacola Vasing. [4, 6]: 5 (Herbicidal ratio of 90% or more (almost completely withered))
- b: directly sowed rice plant, effect on crop (criteria 0-5) (rice plant; 320 g/ha): 5 (Herbicidal ratio of 90% or more (almost completely withered))
- g: rapeseed, effect grade on crop (rapeseed; 320 g/ha): 3 (Herbicidal ratio of 40% or higher and lower than 70%)
- P: Stellaria media, herbicidal effect (criteria 0-5) (Stellaria media; 320 g/ha): 0 (Herbicidal ratio of 5% or lower (almost no effect))
